Assay results published in patent US4263325A, “β-Receptor blocking compounds and treatment of cardiovascular disorders therewith” (priority 1979, dated 1981).

Tests used:
vascular β-receptors = biological target: T1, vascular β-receptors (Felis catus, UniProt Q9TST5); experiment: β-blockade of isoprenaline peripheral (vascular) resistance response, reserpinized anaesthetized cat, autoperfused hind leg; format: in vivo; settings: iv, i.v. test compound, isoproterenol 0.1 μg/kg i.v., dose reducing response to 50 percent
T1 construct: All compounds were thereby tested in anaeshtetized cats; from tissue; host or cells: hind-leg vasculature of the living, reserpinized, anaesthetized cat (autoperfused)
Description: (§1) The agents of the present invention were tested as regards their biological properties. All compounds were thereby tested in anaeshtetized cats (males and females weighing 2.5-3.5 kg) pretreated with reserpine (5 mg/kg body-weight administered intramusculary) about 16 hours before the experiments. The animals were pretreated with reserpine in order to eliminate the endogenous sympathetic control of heart rate and vascular smooth muscle tone. The cats were anaesthetized with pentobarbital (30 mg/kg bodyweight administered i.p. ) and artificially ventilated with room air. A bilateral vagotomy was performed in the neck. Blood pressure was obtained from a cannulated carotid artery and heart rate was registered from a cardiotachometer, triggered by the electrocardiogram (ECG). Vascular resistance in one hind leg was recorded by an autoperfusion technique. Intrinsic beta mimetic activity on the heart was seen as increased heart rate after drug administration. The test compounds were given intravenously in logarithmically increasing doses. Before the first dose and between each of the following doses (0.012-51.2 μmol/kg) of the test compound a dose of isoproterenol (0.1 μg/kg) was injected intravenously. Blockade of the heart rate and vascular resistance response to isoproterenol was calculated for each dose and expressed as percent decrease of the response obtained when isoproterenol was injected before any dose of the test compound. Percent blockade was then plotted against the logarithm of the dose. ED50 values i.e. doses producing a reduction of the original response to isoproterenol to 50 percent were estimated from these dose-response curves. At the end of each experiment high doses of isoprenaline were given in order to obtain the maximal heart rate response.

α-receptors = biological target: T2, α-receptors (Rattus norvegicus, UniProt P43140); experiment: α-receptor blocking activity in isolated rat vas deferens (inhibition of noradrenaline contraction); settings: noradrenaline as agonist, high pA2 = high α-receptor blocking activity
T2 construct: from tissue; host or cells: isolated rat vas deferens
T2 sequence (P43140 1-466): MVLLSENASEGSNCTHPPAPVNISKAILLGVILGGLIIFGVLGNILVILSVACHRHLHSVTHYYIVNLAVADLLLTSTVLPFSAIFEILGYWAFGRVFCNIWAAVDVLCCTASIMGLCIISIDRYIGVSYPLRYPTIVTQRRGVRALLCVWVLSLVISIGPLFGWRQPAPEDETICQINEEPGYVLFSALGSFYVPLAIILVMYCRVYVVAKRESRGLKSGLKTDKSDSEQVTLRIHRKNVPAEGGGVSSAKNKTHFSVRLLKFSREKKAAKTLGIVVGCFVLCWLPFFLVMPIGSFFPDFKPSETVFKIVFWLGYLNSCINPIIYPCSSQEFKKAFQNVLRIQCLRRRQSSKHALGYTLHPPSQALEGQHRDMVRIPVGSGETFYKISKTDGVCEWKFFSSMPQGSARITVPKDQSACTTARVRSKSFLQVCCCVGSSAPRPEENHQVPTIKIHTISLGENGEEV
Description: α-receptor blocking activity was tested in isolated rat vas deferens. Noradrenaline administered to the organ bath induces a contraction in vas deferens by activating α-receptors. The ability of the test compounds to inhibit this noradrenaline response was studied. The α-receptor blocking activity was expressed as pA2 values. pA2 is defined as the negative logarithm of the concentration of an antagonist (in our case the test compounds) which leads to the fact that the dose of the agonist (in our case noradrenaline) has to be doubled in order to obtain the same effect of the agonist as that obtained without the antagonist present. Thus a high pA2 value indicates a high α-receptor blocking activity of a compound.

cardiac β-receptors [1] = biological target: T3, cardiac β-receptors (Felis catus, UniProt Q9TST6); experiment: Intrinsic beta mimetic activity on the heart (increase of heart rate), reserpinized anaesthetized cat; format: in vivo; settings: i.v.; for Intrinsic activity Δbeats/min: increase of heart rate after drug; for Intrinsic activity % of isoprenaline: maximal heart rate response obtained with high doses of isoprenaline
T3 construct: All compounds were thereby tested in anaeshtetized cats; from tissue; host or cells: heart of the living, reserpinized, anaesthetized cat
Description: as §1

cardiac β-receptors [2] = biological target: T3, cardiac β-receptors; experiment: β-blockade of isoprenaline heart rate response, reserpinized anaesthetized cat; format: in vivo; settings: iv, i.v. test compound, isoproterenol 0.1 μg/kg i.v., dose reducing response to 50 percent
Description: as §1

T1 sequence (Q9TST5 whole entry, the tested form may be a part): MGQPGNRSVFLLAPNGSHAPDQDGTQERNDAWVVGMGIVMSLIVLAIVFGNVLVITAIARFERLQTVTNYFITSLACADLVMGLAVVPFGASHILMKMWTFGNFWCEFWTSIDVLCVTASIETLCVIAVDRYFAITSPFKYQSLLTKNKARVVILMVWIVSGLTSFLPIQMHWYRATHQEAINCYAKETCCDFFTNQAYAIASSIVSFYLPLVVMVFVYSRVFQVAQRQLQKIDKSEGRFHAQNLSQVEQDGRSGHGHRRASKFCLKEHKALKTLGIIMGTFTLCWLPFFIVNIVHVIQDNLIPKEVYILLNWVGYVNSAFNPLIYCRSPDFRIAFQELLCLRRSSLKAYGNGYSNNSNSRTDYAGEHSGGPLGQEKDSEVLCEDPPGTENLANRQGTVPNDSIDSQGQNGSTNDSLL
T3 sequence (Q9TST6 whole entry): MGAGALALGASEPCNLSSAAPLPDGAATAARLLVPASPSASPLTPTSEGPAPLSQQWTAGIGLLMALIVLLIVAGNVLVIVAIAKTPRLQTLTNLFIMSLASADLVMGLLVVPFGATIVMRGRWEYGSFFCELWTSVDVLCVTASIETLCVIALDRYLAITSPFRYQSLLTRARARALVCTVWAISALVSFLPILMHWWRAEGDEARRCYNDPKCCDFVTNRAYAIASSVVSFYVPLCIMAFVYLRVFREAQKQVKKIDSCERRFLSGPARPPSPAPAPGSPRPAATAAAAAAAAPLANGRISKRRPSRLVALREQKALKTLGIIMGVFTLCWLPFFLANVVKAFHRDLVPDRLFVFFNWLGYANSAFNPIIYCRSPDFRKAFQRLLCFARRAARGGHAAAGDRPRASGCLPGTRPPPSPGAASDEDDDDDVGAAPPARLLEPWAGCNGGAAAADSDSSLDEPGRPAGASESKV

SMILES | ED50 (vascular β-receptors) | Kb (α-receptors) | Intrinsic activity Δbeats/min (cardiac β-receptors [1]) | Intrinsic activity % of isoprenaline (cardiac β-receptors [1]) | ED50 (cardiac β-receptors [2])
COc1ccc(OCCNCC(O)COc2ccccc2C)cc1OC (centres unmarked) [CH3; 3,4-diOCH3, 3-[2-(3,4-dimethoxyphenoxy)-ethylamino]-1-o-methylphenoxy-propanol-2] | 5.8 µmol/kg | 1000 nM | 8 beats/min | 11 % of isoprenaline | 1.5 µmol/kg
COc1ccccc1OCCNCC(O)COc1ccccc1C (centres unmarked) [CH3; 2-OCH3, 3-[2-(2methoxyphenoxy)-ethylamino]-1-o-methylphenoxy-propanol-2] | 11 µmol/kg | 100 nM | 8 beats/min | 8 % of isoprenaline | 4.5 µmol/kg
OCc1ccccc1OCC(O)CNCCOc1ccc(O)cc1 (centres unmarked) [HOCH2; pOH, 3-[2-(4-hydroxyphenoxy)-ethylamino]-1-o-hydroxymethylphenoxy-propanol-2] | 0.05 µmol/kg | 501 nM | 17 beats/min | – | 0.02 µmol/kg

Further lines, with some results ahead:

ED50 (vascular β-receptors) | Kb (α-receptors) | SMILES | Intrinsic activity Δbeats/min (cardiac β-receptors [1]) | Intrinsic activity % of isoprenaline (cardiac β-receptors [1]) | ED50 (cardiac β-receptors [2])
17 µmol/kg | 1000 nM | Cc1ccccc1OCC(O)CNCCOc1ccccc1O (centres unmarked) [CH3; 2-OH, 3-[2-(2-hydroxyphenoxy)-ethylamino]-1-o-methylphenoxy-propanol-2] | 30 beats/min | 29 % of isoprenaline | 0.6 µmol/kg
0.02 µmol/kg | 126 nM | CCCc1ccccc1OCC(O)CNCCOc1ccc(O)cc1 (centres unmarked) [C3H7; pOH, 3-[2-(4-hydroxyphenoxy)-ethylamino]-1-o-propylphenoxy-propanol-2] | 0 beats/min | 0 % of isoprenaline | 0.02 µmol/kg
8.2 µmol/kg | 1580 nM | COc1ccc(OCCNCC(O)COc2ccccc2C)cc1 (centres unmarked) [CH3; 4-OCH3, 3-[2-(4-methoxyphenoxy)-ethylamino]-1-o-methylphenoxy-propanol-2] | 17 beats/min | 22 % of isoprenaline | 0.5 µmol/kg
